Data as given in patent US4044150A, “Antihypertensive 4'-[1-hydroxy-2-[(1-phenoxy ethyl)-amino]ethyl]methanesulfonanilide and salts thereof and therapeutic use” (Mead Johnson & Company, priority 1976, dated 1977).
Entries after “also recorded” stand apart in the source; their conditions may differ.

What was measured:
[1] = acute toxicity in rats (oral LD50); details: rat, in vivo, hydrochloride
[2] = acute toxicity in mice (LD50); details: mouse, in vivo, hydrochloride
[3] = tested on: Spontaneous Hypertensive Rat; assay: lowering of blood pressure and heart rate in the spontaneously hypertensive rat (SHR); assay type: in vivo; details: for ED (40 mm Hg) / ED (10%): Rattus norvegicus, 4 h; for ED (40 mm Hg): read-out: Dose which lowers blood pressure by 40 mm Hg; for ED (10%): read-out: Dose which lowers heart rate by 10%; for reduction of heart rate / reduction of systolic blood pressure: doses of 50-200 mg./kg., 4 hours (FIG. 1, FIG. 2)
Protocol: FIG. 1 constitutes a dose-response graph of blood pressure and heart rate changes determined in the spontaneous hypertensive rat 4 hours after orally administered 4'-[1-hydroxy-2-[(1 -phenoxyethyl)amino]ethyl]methanesulfonanilide (Compound A). Blood pressure changes at doses of 50, 100, and 200 mg./kg. body weight are given in millimeters of mercury and are represented by circles (-0 -) with percent change in heart rate represented by squares (- -).
FIG. 2 constitutes a dose-response graph of blood pressure and heart rate changes similar to that of FIG. 1 for 4-[2-( 1-phenoxy-2-propylamino)-1-hydroxyethyl]methanesulfonanilide (Compound B).
Another in vivo animal experiment considered predictive of antihypertensive utility by those skilled in the art is the lowering of blood pressure in an inbred strain of spontaneously hypertensive rat (SHR) established by Okamoto and Aoki. In this test, systolic blood pressure and heart rate determinations are made immediately before the animals are orally dosed to provide control values and subsequently thereafter at 4 and 24-hour periods to determine drug effect. Various doses of test drug are administered and a dose-response graph obtained by plotting (on semi-log paper) the observed change (mm Hg) in systolic blood pressure and percent change in heart rate as […]. […] Values set forth in Table II below are taken from FIGS. 1 and 2.

mammals = assay: general statement on heart rate at effective antihypertensive doses; assay type: in vivo; details: for change in heart rate: at effective antihypertensive or hypotensive doses
[4] = tested on: Anesthetized Dog Challenged with Isoproterenol; assay: inherent cardiac and blood pressure effects in the isoproterenol challenged intact anesthetized dog; assay type: in vivo; details: for Absolute Change From Control in Contractile Force (CF) / Absolute Change From Control in Heart Rate (HR) / Absolute Change From Control in Mean Arterial Blood Pressure (MABP): decrease
Protocol: One such test involves the measurement of inherent cardiac and blood pressure effects in the isoproterenol challenged intact anesthetized dog. In this test model, dogs are anesthetized with a mixture of phenobarbital sodium (15 mg./kg.) and barbital sodium (225 mg./kg.) intravenously and are vagotomized bilaterally. Heart rate, contractile force and diastolic blood pressure are continuously recorded with alterations in these responses (e.g. tachycardia) produced by intravenously administered isoproterenol determined before and after injection of increasing doses of the test compound. The test substance is administered to separate groups of dogs at cumulative doses of 0.1, 0.3, 1, 3, and 10 mg./kg. body weight with each dose of the test substance infused slowly over a period of 3-5 minutes. After completing infusion of the test substance, a 10 -minute equilibrium period is allowed for drug-receptor interaction and stabilization of the cardiovascular system before a series of isoproterenol challenges is initiated. Maximum response to isoproterenol is achieved after each dose of the beta-adrenergic blocking agent by logarithmically increasing the dose of this agonist as receptor blockade develops. Each dose of isoproterenol is given approximately 5 minutes after the previous one and the overall dose range for isoproterenol is from 0.03-300 micrograms per kilogram body weight. Mean changes in the resting levels of the cardiovascular variables (heart rate, contractile force, and mean arterial blood pressure) due to the administration of each agent (which is taken as a measure of the inherent drug effect) is determined and statistically compared using the Student's test.

beta-receptor = details: isolated guinea pig tracheal spiral; Uloth et al., J. Med. Chem. 9, 88-97 (1966); cited from earlier work
[5] = 0.3 mg/kg i.v., + = increase from control (footnote c)

Compound	ED (40 mm Hg) ([3]; oral, taken from FIGS. 1 and 2) [mg/kg]	ED (10%) ([3]; oral, taken from FIGS. 1 and 2) [mg/kg]	reduction of heart rate ([3]; oral)	reduction of systolic blood pressure ([3]; oral)	Percent decrease in heart rate at dose lowering blood pressure by 40 mm Hg ([3]; oral, taken from FIGS. 1 and 2) [%]	change in heart rate (mammals)	Absolute Change From Control in Contractile Force (CF) ([4]; 0.3 mg/kg i.v.) [gm]	Absolute Change From Control in Heart Rate (HR) ([4]; 0.3 mg/kg i.v.) [bpm]	Absolute Change From Control in Mean Arterial Blood Pressure (MABP) [4, 5]	Absolute Change From Control in Contractile Force (CF) ([4]; 1.0 mg/kg i.v.) [gm]	Absolute Change From Control in Heart Rate (HR) ([4]; 1.0 mg/kg i.v.) [bpm]	Absolute Change From Control in Mean Arterial Blood Pressure (MABP) ([4]; 1.0 mg/kg i.v.) [mm Hg]	Absolute Change From Control in Contractile Force (CF) ([4]; 3.0 mg/kg i.v.) [gm]	Absolute Change From Control in Heart Rate (HR) ([4]; 3.0 mg/kg i.v.) [bpm]	Absolute Change From Control in Mean Arterial Blood Pressure (MABP) ([4]; 3.0 mg/kg i.v.) [mm Hg]	Absolute Change From Control in Contractile Force (CF) ([4]; 10.0 mg/kg i.v.) [gm]	Absolute Change From Control in Heart Rate (HR) ([4]; 10.0 mg/kg i.v.) [bpm]	Absolute Change From Control in Mean Arterial Blood Pressure (MABP) ([4]; 10.0 mg/kg i.v.) [mm Hg]	effect on mean arterial blood pressure ([4]; doses of 0.3 to 1.0 mg./kg.)	further results
CS(=O)(=O)Nc1ccc(C(O)CNCCOc2ccccc2)cc1.Cl (stereo not drawn) [4'-[1-Hydroxy-2-[(2-phenoxyethyl)amino]ethyl]methanesulfonanilide Hydrochloride]																				LD50 ([1]; female rat): 1950 mg/kg; LD50 ([1]; male rat): 3550 mg/kg; LD50 ([2]; ip, intraperitoneal, read-out: intraperitoneal LD50): 273 mg/kg; LD50 ([2]; oral, read-out: oral LD50): 1920 mg/kg
CS(=O)(=O)Nc1ccc(C(O)CNCCOc2ccccc2)cc1 (stereo not drawn) [Compound A, 4'-[1-hydroxy-2-[(2-phenoxyethyl)amino]ethyl]methanesulfonanilide]	165	150	2-12%	22-43 mm Hg	11	little or no effect on heart rate	8 ± 6	22 ± 4	17 ± 3 mm Hg	11 ± 5	32 ± 5	12 ± 3	11 ± 5	38 ± 6	16 ± 4	17 ± 7	38 ± 6	34 ± 7	effectively reduces mean arterial blood pressure	bradycardia liability relative to Compound B ([3]; at doses sufficient to reduce blood pressure by 40 mm Hg): about 50%; Percent decrease in blood pressure at dose lowering heart rate by 10% ([3]; oral, taken from FIGS. 1 and 2): 38%; change in heart rate (mammals; listed as compound of the instant invention): little or no significant change in heart rate; effect on blood pressure (mammals; effective dose): reduces blood pressure; Absolute Change From Control in Contractile Force (CF) ([4]; 0.1 mg/kg i.v.): 9 ± 6 gm; Absolute Change From Control in Heart Rate (HR) ([4]; 0.1 mg/kg i.v.): 18 ± 4 bpm; Absolute Change From Control in Mean Arterial Blood Pressure (MABP) ([4]; 0.1 mg/kg i.v.): 11 ± 1 mm Hg; reduction in heart rate ([4]; dose of 0.1 mg./kg.): 12%
CC(COc1ccccc1)NCC(O)c1ccc(NS(C)(=O)=O)cc1 (stereo not drawn) [Compound B, 4-[2-(1-phenoxy-2-propylamino)-1-hydroxyethyl]methanesulfonanilide, reference compound]	100	18	17-25%	18-64 mm Hg	21	substantial decrease in heart rate	6 ± 7	29	+1 ± 5 mm Hg	4 ± 7	39 ± 7	2 ± 6	4 ± 7	54 ± 7	10 ± 8	6 ± 9	72 ± 9	28 ± 14	no significant effect	decrease in blood pressure at dose lowering heart rate by 10% (in words) ([3]; oral, taken from FIGS. 1 and 2): no significant; also recorded: no effect on blood pressure; beta-receptor blocking activity relative to dichloroisoproterenol (beta-receptor): four times the activity of dichloroisoproterenol; reduction in heart rate ([4]; dose of 3 mg./kg.): 33%; effect on heart rate (bradycardia) ([4]; doses of 0.3 to 1.0 mg./kg.): pronounced bradycardia
